From patent publication US8592590B2, “Tetrahydrotriazolopyridine compounds as selective MGLU5 receptor potentiators useful for the treatment of schizophrenia” (Eli Lilly and Company, priority 2009, dated 2013)

What was measured:
human mGlu5 receptor = target: T1, human mGlu5 receptor (Homo sapiens, UniProt P41594); assay: Functional in vitro activity at human mGlu5 receptor (FLIPR calcium, potentiator mode); type: cell-based; details: AV-12 cells expressing human mGlu5, glutamate EC10, relative EC50
T1 construct: expressed in transfected cells
Protocol: An AV-12 cell line stably expressing the human mGlu5 receptor and co-transfected with the rat glutamate transporter EAAT 1 (Excitatory Amino Acid Transporter 1) are used for these studies (see for example Desai, Burnett, Mayne, Schoepp, Mol. Pharmacol. 48, 648-657, 1995). The cell line is maintained by culturing in Dulbecco's Modified Eagle's Medium (DMEM) with high glucose and pyridoxine hydrochloride supplemented with 5% heat inactivated, dialyzed fetal bovine serum, 1 mM sodium pyruvate, 10 mM HEPES (4-(2-hydroxyethyl)-1-piperazineethanesulfonic acid), 1 mM of L-glutamine, 0.75 mg/ml geneticin and 0.3 mg/ml hygromycin. Sub-confluent cultures are passaged twice per week using 0.25% trypsin-EDTA. […]
Intracellular calcium levels are monitored before and after the addition of compounds using a Fluorometric Imaging Plate Reader (FLIPR, Molecular Devices, Union City, Calif. USA). […] The results are analyzed using (GraphPad® Prism v4, Graphpad Software, LaJolla, Calif., USA) to calculate the concentrations of glutamate needed to induce the EC10 responses.
Compounds are tested in a two-addition FLIPR assay using a 10-point concentration response profile starting at a final concentration of 25 μM (agonist mode) or 12.5 μM (potentiator mode). […] After taking an initial 5-sec fluorescent read on the FLIPR instrument, compound is added to the cell plate (50 ul per well). […]

Male Lister hooded rats = assay: Delayed matching to position task (DMTP) in rats, deficit induced by NMDA antagonist SDZ 220,581; type: in vivo, rat
Text: The delayed matching to position task (DMTP) has been used to study working memory in rats. Working memory in this context is the retention and use of information that is available only during an individual trial. The study of compounds which modulate NMDA receptors in DMTP has been used to identify the importance of NMDA receptors in learning and memory. More specifically, studies have shown competitive NMDA antagonists to induce impairment of DMTP in rats. Compounds which show a positive effect in attenuating deficits induced by competitive NMDA antagonists in rats are believed to be useful in treating cognitive disorders in humans.
Male Lister hooded rats are housed in groups of 4 and are maintained on a food-restricted diet and a 12-hour light dark cycle. The experiments are conducted during the same part of the light phase each day.
Standard operant chambers, housed in sound and light attenuating chambers are used. Each chamber comprised a house light, two retractable levers, each with a stimulus light above it. The levers are located either side of a recessed magazine where food pellets are delivered from an automatic pellet dispenser. Start of a session is signaled by onset of the house light, and its permanent offset indicated the end of a session. Experimental sessions are controlled and data is recorded and analyzed.
Sample Phase. A trial begins with a one of the levers extending into the chamber. The stimulus light above the lever is illuminated. If the lever is pressed, it is retracted and the stimulus light extinguished. This initiates the pseudo-randomly selected delay period of 1, 2, 4, 8 or 16 seconds during training or 1, 12, or 32 seconds during test.
Head Entry. After this delay period is complete, animals are required to make a head entry into the food hopper within 10 seconds, if an appropriate response is made both levers are extended into the chamber. If no response is made during this period, the house-light is extinguished and the trial counted as an omission.
Choice Phase. If animals make the appropriate head entry response and the levers extended into the operant chamber, they have 10 seconds which to make their response. A correct response consists of an animal pressing the same lever that is extended into the chamber during the sample phase. This response results in both levers retracting and a single food pellet being delivered into the food hopper. After a 5 second inter-trial interval the next trial begins. Following an incorrect response, (the animal pressing the opposite lever as had been extended during the sample phase), both levers retract and the house-light is extinguished signaling the end of that trial. After a 5 second time out the next trial begins, signaled by onset of the house-light. If the animal fails to respond within 10 second during the choice phase, the levers retract, the house-light extinguishes and the trial is recorded as an omission.
Overall Session. Each session is terminated after 75 trials (15 pseudo-random presentations of each delay period). Animals are trained to a criterion of greater than 70% accuracy over the entire session with less than 10% omissions of responding. After criterion is reached, rats are trained two times a week in a baseline condition and once a week in a test condition.
Test Compounds. A compound of the present invention stock of 1.0 mg/ml is prepared. For example, 18.7 mg of the compound of Example 11 is weighed and suspended in 18.7 ml vehicle (1% high viscocity cmc, 0.25% tween, 0.05% antifoam). A white suspension is formed. Test compound is administered orally, 60 minutes prior to the start of a session, in a volume of 1 ml/kg.
NMDA antagonist stock, 2.0 mg/ml: […] of SDZ 220,581 is weighed and dissolved in 16.73 ml vehicle (0.09 ml 1M NaOH, made up to volume with 5% glucose). A solution is formed and at a pH 6.5 at time of injection. SDZ 220,581 is administered subcutaneously, 30 minutes prior to the start of a session, in a volume of 1 ml/kg. […]

[1] = Example 11/V: Example 11 1 mg/kg orally 60 min prior, vehicle instead of SDZ

T1 sequence (P41594 21-1212): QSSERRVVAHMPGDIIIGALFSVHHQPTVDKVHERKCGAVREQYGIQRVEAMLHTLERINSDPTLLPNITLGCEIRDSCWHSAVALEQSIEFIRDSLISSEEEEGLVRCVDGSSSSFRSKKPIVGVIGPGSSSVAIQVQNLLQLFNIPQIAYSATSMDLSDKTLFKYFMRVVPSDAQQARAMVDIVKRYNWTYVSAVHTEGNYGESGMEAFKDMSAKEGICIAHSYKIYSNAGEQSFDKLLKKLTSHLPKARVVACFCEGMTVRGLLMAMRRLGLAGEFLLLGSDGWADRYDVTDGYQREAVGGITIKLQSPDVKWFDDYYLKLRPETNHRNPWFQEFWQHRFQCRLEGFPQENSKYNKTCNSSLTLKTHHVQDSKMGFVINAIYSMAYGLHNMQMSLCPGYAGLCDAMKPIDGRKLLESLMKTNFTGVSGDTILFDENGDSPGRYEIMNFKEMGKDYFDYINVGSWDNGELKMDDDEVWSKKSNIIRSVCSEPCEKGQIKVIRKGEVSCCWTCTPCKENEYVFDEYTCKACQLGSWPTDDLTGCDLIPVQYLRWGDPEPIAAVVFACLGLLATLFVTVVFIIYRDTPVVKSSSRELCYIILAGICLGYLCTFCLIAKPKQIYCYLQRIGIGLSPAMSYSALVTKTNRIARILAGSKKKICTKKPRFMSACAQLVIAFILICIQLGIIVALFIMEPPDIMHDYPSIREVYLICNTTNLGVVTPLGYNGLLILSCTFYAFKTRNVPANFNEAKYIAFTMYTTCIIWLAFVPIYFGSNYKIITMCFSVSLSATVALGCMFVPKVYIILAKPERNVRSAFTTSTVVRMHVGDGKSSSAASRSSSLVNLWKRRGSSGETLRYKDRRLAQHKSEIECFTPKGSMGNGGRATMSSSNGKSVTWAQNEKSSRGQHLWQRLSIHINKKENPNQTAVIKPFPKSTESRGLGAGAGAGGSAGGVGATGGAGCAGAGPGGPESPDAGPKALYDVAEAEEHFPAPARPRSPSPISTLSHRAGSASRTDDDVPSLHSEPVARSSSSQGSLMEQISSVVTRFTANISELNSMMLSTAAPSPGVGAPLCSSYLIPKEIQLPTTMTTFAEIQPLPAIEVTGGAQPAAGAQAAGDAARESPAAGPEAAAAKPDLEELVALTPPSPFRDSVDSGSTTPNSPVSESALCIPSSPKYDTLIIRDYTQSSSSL

Row | EC50 (human mGlu5 receptor) | Compound | Trials Completed (Male Lister hooded rats; Example 11/SDZ: Example 11 1 mg/kg orally 60 min prior plus SDZ 220,581 subcutaneously 30 min prior) | % Accuracy (Male Lister hooded rats; [1]) | % Omissions (Male Lister hooded rats; [1]) | Average Correct latency (Male Lister hooded rats; [1]) | Average Incorrect latency (Male Lister hooded rats; [1]) | Head Entries (Male Lister hooded rats; [1]) | Sample latency (Male Lister hooded rats; [1]) | Trials Completed (Male Lister hooded rats; [1]) | deficits induced by SDZ-220,581 in the delayed matching to position assay of working memory (Male Lister hooded rats; concurrent treatment with 1 mg/kg Example 11)
1 | 120 ± 47 nM | CC(C)(C)c1nnc2n1CCC(c1nc(-c3ccc(F)cc3)no1)C2 (racemic) [Example 1, 3-tert-butyl-7-[3-(4-fluorophenyl)-1,2,4-oxadiazol-5-yl]-5,6,7,8-tetrahydro[1,2,4]triazolo[4,3-a]pyridine] |  |  |  |  |  |  |  |  | 
2 | 36 ± 3.5 nM | CC(C)(C)c1nnc2n1CC[C@H](c1nc(-c3ccc(F)cc3)no1)C2 (single isomer, unassigned) [Example 11] | 72 ± 2 | 75.6 ± 1.6% | 1.2 ± 0.4% | 0.94 ± 0.05 s | 0.98 ± 0.08 s | 2092 ± 83 | 1.84 ± 0.22 s | 75 ± 0 | attenuated all deficits
